The results in this text go back to patent US20250249012A1, “COMPOSITIONS AND METHODS FOR TREATING AND/OR PREVENTING A VIRAL INFECTION” (priority 2022, published 2025).

Where a name gives a salt, the structure may show the parent alone. Read-outs that look alike come from different tables or passages of the source.

A short description of series [1]: Solubility of Apilimod and Nafamostat in different vehicles (visible precipitate). Type of series: physicochemical. Conditions: for precipitate in solution: 1 mg/ml Apilimod di-mesylate, 2 mg/ml Nafamostat mesylate, 12 hours at room temperature, also seen after centrifugation; for solubility in deionized water: mixed and dissolved in deionized (MilliQ) water; for solubility in solutions containing salt: phosphate buffer saline (PBS) or DMEM cell culture medium, particularly when together. From the text:
FIGS. 1A-1B show the solubility of Apilimod and Nafamostat in different vehicles. […] Magnified images of the boxed areas are shown on the right panels.
This is the reason why our drug mixtures were made in deionized (MilliQ) water as stocks and for intranasal administration. While the mouse nose tolerates exposure to deionized (MilliQ) water, for humans it may be necessary to adjust the osmolarity of the solution, for example by adding sucrose.

Series [2] is described as follows: Pharmacokinetics in plasma. Type of series: in vivo.
Series [3] deals with A549-ACE2-TMPRSS2GFP cells. The following applies: 20 hours post infection.
A further series concerns Vero-E6 cells. The following applies: 20 hours post infection.

For `N=C(N)c1ccc2cc(OC(=O)c3ccc(N=C(N)N)cc3)ccc2c1` [Nafamostat mesylate], the precipitate in solution entry in series [1] (in DMEM) and in series [1] (in PBS) was “a precipitate is observable” throughout. The “solubility in deionized water” value in series [1] was “substantially increased”. Moreover, in series [1], the “solubility in solutions containing salt” value was “relatively insoluble and precipitate”. In addition, the half-life in plasma result in series [2] is given as “relatively short half-life times (minutes)”. In addition, the “number of cells, normalized to vehicle-treated infected cells” value in series [3] (drug stock prepared in DMEM) and in series [3] (drug stock prepared in PBS) was “Significant loss of cells” throughout.
“N-[(E)-(3-methylphenyl)methylidencamino]-6-morpholin-4-yl-2-(2-pyridin-2-ylethoxy)pyrimidin-4-amine [Apilimod dimesylate]”: the precipitate in solution result in series [1] (in DMEM) and in series [1] (in PBS) was “a precipitate is observable” in each case. Besides, in series [1], the “solubility in deionized water” value is given as “substantially increased”. Besides, the “solubility in solutions containing salt” value in series [1] is “relatively insoluble and precipitate”. Further, in series [2], the half-life in plasma entry is given as “relatively short half-life times (minutes)”. The “number of cells, normalized to vehicle-treated infected cells” value in the series on Vero-E6 cells (drug stock prepared in DMEM) and in the series on Vero-E6 cells (drug stock prepared in PBS) was “Significant loss of cells” in each case.
